Assay results as given in article PMC4012456 (Marine Drugs, 2014).
Where a name gives a salt, the structure may show the parent alone. Read-outs that look alike come from different tables or passages of the source.

Experiments:
murine muscle-type nAChR = biological target: T1, murine muscle-type nAChR (Mus musculus, UniProt P02716+P04756+P09690+P20782); test: electrophysiology on muscle nAChR expressed in Xenopus laevis oocytes; type: cell-based; conditions: for inhibition of agonist-evoked current on muscle nAChR (in words): 10 μM acetylcholine; for reversibility of inhibition of muscle nAChR: wash out
T1 construct: expressed in transfected cells; host or cells: Xenopus laevis oocytes injected with plasmid DNA (CMV promoter)
T1 sequence (P04756 21-457): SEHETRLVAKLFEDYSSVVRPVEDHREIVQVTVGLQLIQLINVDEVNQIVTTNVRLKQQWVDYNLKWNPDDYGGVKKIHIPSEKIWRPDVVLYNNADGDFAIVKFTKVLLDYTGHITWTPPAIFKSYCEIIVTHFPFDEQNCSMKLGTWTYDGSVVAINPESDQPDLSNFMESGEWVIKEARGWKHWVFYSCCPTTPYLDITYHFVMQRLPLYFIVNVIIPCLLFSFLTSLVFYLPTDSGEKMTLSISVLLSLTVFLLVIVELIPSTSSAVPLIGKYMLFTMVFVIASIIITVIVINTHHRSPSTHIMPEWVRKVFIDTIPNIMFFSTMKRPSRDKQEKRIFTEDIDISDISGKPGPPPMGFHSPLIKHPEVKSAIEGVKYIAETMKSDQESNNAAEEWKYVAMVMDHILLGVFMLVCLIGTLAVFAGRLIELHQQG
T1 sequence (P09690 24-501): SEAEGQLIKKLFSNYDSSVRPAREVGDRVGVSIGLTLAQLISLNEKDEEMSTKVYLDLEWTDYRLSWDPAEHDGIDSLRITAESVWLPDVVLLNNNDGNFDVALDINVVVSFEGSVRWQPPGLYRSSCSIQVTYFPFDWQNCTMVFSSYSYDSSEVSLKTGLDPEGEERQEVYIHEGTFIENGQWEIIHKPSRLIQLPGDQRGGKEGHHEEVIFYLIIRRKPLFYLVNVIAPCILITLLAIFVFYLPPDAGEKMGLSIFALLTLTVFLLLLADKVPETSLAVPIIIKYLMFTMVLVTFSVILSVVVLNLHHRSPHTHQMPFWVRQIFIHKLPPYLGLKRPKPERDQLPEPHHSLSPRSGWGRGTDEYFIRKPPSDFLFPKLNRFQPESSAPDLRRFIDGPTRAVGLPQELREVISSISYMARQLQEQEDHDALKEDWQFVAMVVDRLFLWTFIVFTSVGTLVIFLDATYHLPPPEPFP
T1 sequence (P02716 25-520): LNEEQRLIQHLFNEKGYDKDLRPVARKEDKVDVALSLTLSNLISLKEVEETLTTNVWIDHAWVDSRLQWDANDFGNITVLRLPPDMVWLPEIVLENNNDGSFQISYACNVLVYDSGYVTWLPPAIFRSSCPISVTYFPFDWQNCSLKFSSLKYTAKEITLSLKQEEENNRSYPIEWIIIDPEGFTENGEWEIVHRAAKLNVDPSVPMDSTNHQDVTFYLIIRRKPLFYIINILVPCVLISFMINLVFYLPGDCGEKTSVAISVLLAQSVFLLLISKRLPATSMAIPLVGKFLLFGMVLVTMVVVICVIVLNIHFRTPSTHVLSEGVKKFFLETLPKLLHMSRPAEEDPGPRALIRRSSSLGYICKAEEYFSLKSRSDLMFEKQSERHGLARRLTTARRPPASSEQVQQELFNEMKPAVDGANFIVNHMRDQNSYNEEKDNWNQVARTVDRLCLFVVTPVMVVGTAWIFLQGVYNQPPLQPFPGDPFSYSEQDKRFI
T1 sequence (P20782 21-493): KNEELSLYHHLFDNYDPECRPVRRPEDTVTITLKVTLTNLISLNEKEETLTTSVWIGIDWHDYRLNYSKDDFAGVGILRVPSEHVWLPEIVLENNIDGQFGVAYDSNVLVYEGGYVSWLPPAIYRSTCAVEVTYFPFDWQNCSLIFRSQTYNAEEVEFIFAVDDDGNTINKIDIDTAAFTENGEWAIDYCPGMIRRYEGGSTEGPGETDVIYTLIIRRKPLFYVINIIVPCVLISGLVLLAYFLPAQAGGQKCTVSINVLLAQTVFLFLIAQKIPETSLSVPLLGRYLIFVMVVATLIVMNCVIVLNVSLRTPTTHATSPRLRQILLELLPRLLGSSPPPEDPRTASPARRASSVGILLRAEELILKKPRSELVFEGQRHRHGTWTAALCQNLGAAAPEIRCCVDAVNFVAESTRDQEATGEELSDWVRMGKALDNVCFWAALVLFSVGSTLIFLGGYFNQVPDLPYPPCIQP

L. stagnalis AChBP = L. stagnalis AChBP (Lymnaea stagnalis, UniProt P58154); parameters: method as in PMID 18338186; conditions: read-out: Kd, affinity to L. stagnalis AChBP; quenching of intrinsic tryptophan fluorescence; cited from earlier work
Sequence of L. stagnalis AChBP (P58154 20-229 limits assumed): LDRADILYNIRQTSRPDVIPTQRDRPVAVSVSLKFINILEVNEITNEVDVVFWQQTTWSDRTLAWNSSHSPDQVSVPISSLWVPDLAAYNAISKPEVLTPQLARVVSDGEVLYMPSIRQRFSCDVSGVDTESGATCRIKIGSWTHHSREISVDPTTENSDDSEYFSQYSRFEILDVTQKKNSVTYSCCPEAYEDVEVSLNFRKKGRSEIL

[1] = 10 μM compound, Xenopus oocytes

In the case of `C[C@@H](N)[C@H](O)CCCCCCCC(=O)CCCCCCCCCCCCCC[C@@H](O[C@@H]1O[C@H](CO)[C@H](O)[C@H](O)[C@H]1O)[C@@H](C)N` [Compound 1, Rhizochalin], the “inhibition of agonist-evoked current on muscle nAChR (in words)” value (shortened to “inhibition of agonist-evoked current”) (murine muscle-type nAChR; [1]) is reported as “almost completely” and the “reversibility of inhibition of muscle nAChR” value (murine muscle-type nAChR; 10 μM compound) is reported as “very slowly reversible”.

With `C[C@@H](N)[C@H](O)CCCCCCCCCCCCCCC(=O)CCCCCCC[C@@H](O)[C@@H](C)N` [Compound 2, aglycone of rhizochalin] the IC50 (murine muscle-type nAChR) was 2 ± 0.3 µM, the “inhibition of agonist-evoked current” value (murine muscle-type nAChR; [1]) was “almost completely” and the “reversibility of inhibition of muscle nAChR” value (murine muscle-type nAChR; 10 μM compound) was “very slowly reversible”.

With `C[C@@H]1C[C@@H]2c3cccc4[nH]c(Br)c(c34)C[C@H]2N(C)C1` [Compound 3, pibocin] the IC50 (murine muscle-type nAChR) was 3.7 ± 0.2 µM and the “inhibition of agonist-evoked current” value (murine muscle-type nAChR; [1]) was “moderate activity”.

In the case of `COc1cc(CCN)c2c(c1OC)SSSSS2` [Compound 4, Varacin], the IC50 (murine muscle-type nAChR) is reported as 8.7 ± 0.4 µM and the “inhibition of agonist-evoked current” value (murine muscle-type nAChR; [1]) is reported as “moderate activity”.

For `C[N+]1=C2C=C(N)C(=O)c3[nH]cc(c32)CC1` [Compound 5, makaluvamine C], the “inhibition of agonist-evoked current” value (murine muscle-type nAChR; [1]) was “weaker but still reproducible effect”.

With `Cn1cc2c3c1C(=O)C(N/C=C/c1ccc(O)cc1)=CC3=[N+](C)CC2` [Compound 6, makaluvamine G] the IC50 (murine muscle-type nAChR) was 3.3 ± 0.3 µM, the “inhibition of agonist-evoked current” value (murine muscle-type nAChR; [1]) was “almost completely” and the “receptor recovery time from the end of compound application” value (murine muscle-type nAChR; 10 μM compound, muscle nAChR) was 5 min. The “reversibility of inhibition of muscle nAChR” value (murine muscle-type nAChR; 10 μM compound) was “fast off-set rate”.

In the case of `NC1=N/C(=C2/CCNC(=O)c3[nH]ccc32)C(=O)N1` [Compound 7, Debromohymenialdesine], the “inhibition of agonist-evoked current” value (murine muscle-type nAChR; [1]) is reported as “extremely weak, if any, activity”.

For `C[n+]1ccccc1-c1cccc[n+]1C` [Compound 8, 1,1′-Dimethyl-[2,2′]-bipyridyldiium salt], the “inhibition of agonist-evoked current” value (murine muscle-type nAChR; [1]) was “extremely weak, if any, activity”.

In the case of `O=C1NCCc2cncn21` [Compound 10, 7,8-Dihydroimidazo-[1,5-c]-pyrimidin-5(6H)-one], the “inhibition of agonist-evoked current” value (murine muscle-type nAChR; [1]) is reported as “extremely weak, if any, activity”.

With `Cn1c(=N)c2[nH]cnc2n(C)c1=O` [Compound 11, 1,3-Dimethylisoguaniniium hydrochloride] the “inhibition of agonist-evoked current” value (murine muscle-type nAChR; [1]) was “extremely weak, if any, activity”.

In the case of `COc1cc2ccnc3c2c(c1OC)NC=C3` [Compound 12, Aaptamine], the “inhibition of agonist-evoked current” value (murine muscle-type nAChR; [1]) is reported as “moderate activity”.

For `CC/C=C/[C@@H]1CC[C@]2(C[C@H]3CC[C@H]4[C@@H](C(=O)OC(CC)CCCCCCCCCCCCC[C@@H]5O[C@](O)(CCN)[C@H](O)N(CCCN)C5=O)[C@@]5(CCC[C@H](C)O5)NC(=N2)N34)O1` (some centres unmarked) [Compound 13, monanchocidin], the “inhibition of agonist-evoked current” value (murine muscle-type nAChR; [1]) was “almost completely”, the “reversibility of inhibition of muscle nAChR” value (murine muscle-type nAChR; 10 μM compound) was “very slowly reversible” and the IC50 (murine muscle-type nAChR; read-out: IC50, current inhibition on muscle nAChR, acetylcholine-evoked current (10 μM acetylcholine), Xenopus oocytes) was 4.1 ± 0.6 µM.

In the case of `CN/C(=N\[N+](=O)[O-])NCc1cnc(Cl)s1` [clothianidin], the Kd (L. stagnalis AChBP) is listed as 7.3 µM.
